Measurements as given in PMC11206519, “Multi-Endpoint Toxicological Assessment of Chrysin Loaded Oil-in-Water Emulsion System in Different Biological Models” (Nanomaterials, 2024).
Where two headings read alike, the source gives them in different places.

Test system: S. typhimurium TA98
Assay: Ames test, anti-mutagenicity
Description: Furthermore, the anti-mutagenicity of the samples was performed by a similar procedure, as mentioned above. […] The percentage inhibition (decrease revertant colony number) was calculated as in the following equation:Anti-mutagenicity (%) = [1 − (b/a)] × 100 • a = revertant colony number induced via standard mutagen (positive control). • b = revertant colony number induced by standard mutagen in the presence of each sample treatment.
The percent of inhibition between 0–20%, 21–40%, 41–60%, and higher than 60% indicate negligible, weak, moderate, and strong anti-mutagenicity, respectively.

[1] = AF-2 0.1 µg/plate, −S9, 5.7 µM/plate
[2] = AF-2 0.1 µg/plate, −S9, 11.4 µM/plate
[3] = AF-2 0.1 µg/plate, −S9, 22.8 µM/plate
[4] = PhIP 0.1 µg/plate, +S9, 0.35 µM/plate
[5] = PhIP 0.1 µg/plate, +S9, 0.70 µM/plate
[6] = PhIP 0.1 µg/plate, +S9, 1.40 µM/plate
[7] = PhIP 0.1 µg/plate, +S9, 2.85 µM/plate
[8] = PhIP 0.1 µg/plate, +S9, 5.70 µM/plate

O=c1cc(-c2ccccc2)oc2cc(O)cc(O)c12 [Chrysin, 5,7-dihydroxyflavone]
Inhibitory Classification [1]: Mild | Number of Revertant Colonies [1]: 166 ± 23 | Inhibitory Classification [2]: Moderate | Number of Revertant Colonies [2]: 140 ± 39 | Inhibitory Classification [3]: Mild | Number of Revertant Colonies [3]: 164 ± 56 | Inhibitory Classification [4]: Moderate | Number of Revertant Colonies [4]: 214 ± 9 | Inhibitory Classification [5]: Strong | Number of Revertant Colonies [5]: 153 ± 10 | Inhibitory Classification [6]: Strong | Number of Revertant Colonies [6]: 77 ± 12 | Inhibitory Classification [7]: Strong | Number of Revertant Colonies [7]: 71 ± 9 | Inhibitory Classification [8]: Strong | Number of Revertant Colonies [8]: 45 ± 18 | inhibition at […] (Salmonella enterica, TYPHIMURIUM, read-out: % mutagenic inhibition, AF-2 0.1 µg/plate, −S9, 5.7 µM/plate): 34% | inhibition at 11.4 µM (Salmonella enterica, TYPHIMURIUM, read-out: % mutagenic inhibition, AF-2 0.1 µg/plate, −S9, 11.4 µM/plate): 45% | inhibition at 22.8 µM (Salmonella enterica, TYPHIMURIUM, read-out: % mutagenic inhibition, AF-2 0.1 µg/plate, −S9, 22.8 µM/plate): 35% | inhibition at 0.35 µM (Salmonella enterica, TYPHIMURIUM, read-out: % mutagenic inhibition, PhIP 0.1 µg/plate, +S9, 0.35 µM/plate): 46% | inhibition at 0.7 µM (Salmonella enterica, TYPHIMURIUM, read-out: % mutagenic inhibition, PhIP 0.1 µg/plate, +S9, 0.70 µM/plate): 62% | inhibition at 1.4 µM (Salmonella enterica, TYPHIMURIUM, read-out: % mutagenic inhibition, PhIP 0.1 µg/plate, +S9, 1.40 µM/plate): 81% | inhibition at 2.85 µM (Salmonella enterica, TYPHIMURIUM, read-out: % mutagenic inhibition, PhIP 0.1 µg/plate, +S9, 2.85 µM/plate): 82% | inhibition at […] (Salmonella enterica, TYPHIMURIUM, read-out: % mutagenic inhibition, PhIP 0.1 µg/plate, +S9, 5.70 µM/plate): 89%
